Tests used:
MRGPRD = MRGPRD (Homo sapiens, UniProt Q8TDS7); details: cited from earlier work; for activity as MRGPRD agonists relative to β-ala: compared with β-ala
mast cell degranulation [1] = assay: 48/80-mediated mast cell degranulation, Evan's blue dye in the skin, i.d. β-alanine pre-treatment; type: in vivo, C57BL/6 mice
Method: Compound 48/80, the condensation product of N-methyl p-methoxyphenethylamine and formaldehyde, is a well-known chemical that induces rapid mast cell degranulation and associated edema. The degree of edema in the skin is measured by the amount of Evan's blue dye in the skin. […] In mice that lack MRGPRD neurons, β-alanine had no effect on 48/80's ability to activate mast cells (compare columns 5 and 6). This is a specificity control since the neurons that express the receptor for β-alanine are absent.

[2] = test system: DNFB contact hypersensitivity; details: MRGPRD-DTR mice treated with DT (MRGPRD-ablated), same regimen
Method: Referring to FIG. 2, cohorts of C57BL/6 mice (n=5) were either pre-treated by i.d. injection of b-alanine (WT+b-ala) or vehicle (WT) on the abdomen for 2 days followed by sensitization at the same site with 0.2% DNFB (a chemical sensitizer). Five days later 0.2% DNFB was applied to the ear. The increased degree of ear swelling on the indicated day compared to ear thickness prior to application of DNFB was measured. Increased ear thickness was employed a surrogate for the amount of immune response to DNFB was measured. As a specificity control, MRGPRD-DTR mice treated with DT to ablate MRGPRD-expressing neurons (labeled MRGPRD in FIG. DD), and were treated similarly (MRGPRD and MRGPRD+b-ala).

mast cell degranulation [3] = details: 5% topical, shaved flank skin twice daily for 2 days, then i.d. compound 48/80, read ten minutes later; figure values in μg per g of tissue, p<0.01
Method: Mice were then given Evans' blue dye i.v. followed by an intradermal injection of compound 48/80. Ten minutes later, the amount of Evans' blue dye present in the skin (μg·g^−1 of tissue) as an indication of the extent of mast cell degranulation was determined by skin biopsy, enzymatic digestion, and […] evaluation.

wound healing pathways = details: 100 mM injected twice daily for 2 days, WT C57BL/6; compared with published tape stripping RNAseq data
Method: Wild type C57BL/6 mice were injected with 100 mM β-alanine or vehicle twice daily for 2 days. Skin at the treated sites were harvested and mRNA was obtained and subjected to RNAseq. Genes with increased gene expression in the β-alanine treated group were anayzed by pathway analysis.

Sequence of MRGPRD (Q8TDS7 whole entry): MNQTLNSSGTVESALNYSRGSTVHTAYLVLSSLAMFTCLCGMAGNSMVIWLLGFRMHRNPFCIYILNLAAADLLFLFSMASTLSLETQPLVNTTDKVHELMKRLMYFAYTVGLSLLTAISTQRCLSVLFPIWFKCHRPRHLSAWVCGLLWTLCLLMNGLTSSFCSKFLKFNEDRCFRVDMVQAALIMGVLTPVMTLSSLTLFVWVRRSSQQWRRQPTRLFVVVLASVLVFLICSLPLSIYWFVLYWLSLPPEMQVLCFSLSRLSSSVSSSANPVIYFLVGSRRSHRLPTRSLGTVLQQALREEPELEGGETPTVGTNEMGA

SMILES	activity as MRGPRD agonists relative to β-ala (MRGPRD)	Evan's blue dye in the skin (edema, mast cell degranulation) after compound 48/80 (mast cell degranulation [1]; C57BL/6 mice, i.d. pre-treatment for 2 days, then i.d. compound 48/80, FIG. 1 columns 3 and 4)	Evan's blue dye in the skin (48/80's ability to activate mast cells) (mast cell degranulation [1]; mice that lack MRGPRD neurons (specificity control), FIG. 1 columns 5 and 6)	cutaneous mast cell function (mast cell degranulation [1]; wild-type mice (summary statement of Example 1))	ear swelling (immune response to DNFB) [2]	mast cell degranulation (dermal Evan's blue dye) (mast cell degranulation [3])	pathways activated in skin (RNAseq pathway analysis) (wound healing pathways)	forskolin-stimulated cAMP production (MRGPRD; cells expressing MRGPRD)
NCCCC(=O)O [GABA, 4-aminobutanoic acid]	significantly weaker	–	–	–	–	–	–	–
CC(CN)C(=O)O (stereo not drawn) [β-AIBA, 3-aminoisobutyric acid]	significantly weaker	–	–	–	–	–	–	–
NCCC(=O)O [β-alanine, 3-aminopropanoic acid]	–	inhibited this effect	no effect	sufficient to suppress	no effect	suppresses	activates wound healing pathways	decreases
